The supplement of paper PMC10307832

How the values were obtained:
Assay in all cases: relative viability (nuclei count vs DMSO), 5 days (fraction); higher = more cells survive
IMD-0354 + Dasatinib = compound: O=C(Nc1cc(C(F)(F)F)cc(C(F)(F)F)c1)c1cc(Cl)ccc1O [IMD-0354] + Cc1nc(Nc2ncc(C(=O)Nc3c(C)cccc3Cl)s2)cc(N2CCN(CCO)CC2)n1 [Dasatinib] (partner 0.075 µM)
In short: (§1)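 Dosing by pin tool came one day after lung cancer cell lines were seeded in 1536-well plates, using either one drug or a fixed anchor-drug dose plus five library-drug doses (not always all listed) in √10 steps. After 5 days, nuclei were counted on 4× images. Relative viability is treated-well nuclei count divided by vehicle-well nuclei count, and values are medians of duplicate plates.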

IMD-0354 + Luminespib = compound: O=C(Nc1cc(C(F)(F)F)cc(C(F)(F)F)c1)c1cc(Cl)ccc1O [IMD-0354] + CCNC(=O)c1noc(-c2cc(C(C)C)c(O)cc2O)c1-c1ccc(CN2CCOCC2)cc1 [Luminespib] (partner 0.01 µM)
In short: as §1

CX-5461 + Bortezomib = compound: Cc1cnc(CNC(=O)c2c(=O)c3ccc(N4CCCN(C)CC4)nc3n3c2sc2ccccc23)cn1 [CX-5461] + CC(C)C[C@H](NC(=O)[C@H](Cc1ccccc1)NC(=O)c1cnccn1)B(O)O [Bortezomib] (partner 0.002 µM)
In short: as §1

CX-5461 + Decitabine = compound: Cc1cnc(CNC(=O)c2c(=O)c3ccc(N4CCCN(C)CC4)nc3n3c2sc2ccccc23)cn1 [CX-5461] + Nc1ncn([C@H]2C[C@H](O)[C@@H](CO)O2)c(=O)n1 [Decitabine] (partner 2 µM)
In short: as §1

Cell Line	relative viability (IMD-0354 + Dasatinib; first compound 0.04 µM)	relative viability (IMD-0354 + Dasatinib; first compound 0.1265 µM)	relative viability (IMD-0354 + Dasatinib; first compound 0.4 µM)	relative viability (IMD-0354 + Dasatinib; first compound 1.265 µM)	relative viability (IMD-0354 + Dasatinib; first compound 4 µM)	relative viability (IMD-0354 + Luminespib; first compound 0.04 µM)	relative viability (IMD-0354 + Luminespib; first compound 0.1265 µM)	relative viability (IMD-0354 + Luminespib; first compound 0.4 µM)	relative viability (IMD-0354 + Luminespib; first compound 1.265 µM)	relative viability (IMD-0354 + Luminespib; first compound 4 µM)	relative viability (CX-5461 + Bortezomib; first compound 0.01 µM)	relative viability (CX-5461 + Bortezomib; first compound 0.03162 µM)	relative viability (CX-5461 + Bortezomib; first compound 0.1 µM)	relative viability (CX-5461 + Bortezomib; first compound 0.3162 µM)	relative viability (CX-5461 + Bortezomib; first compound 1 µM)	relative viability (CX-5461 + Decitabine; first compound 0.01 µM)	relative viability (CX-5461 + Decitabine; first compound 0.03162 µM)	relative viability (CX-5461 + Decitabine; first compound 0.1 µM)	relative viability (CX-5461 + Decitabine; first compound 0.3162 µM)	relative viability (CX-5461 + Decitabine; first compound 1 µM)
NCI-H3122	0.843	0.824	0.321	0.286	0.0969	0.0711	0.103	0.0803	0.0918	0.0652	0.95	1.06	1.07	1.02	0.914	0.407	0.387	0.354	0.515	0.417
PC-3 [JPC-3]	1.12	0.878	0.761	0.399	0.275	0.688	0.53	0.569	0.351	0.259	0.745	0.83	0.838	0.884	0.825	0.801	–	0.842	0.801	0.77
PC-14	0.334	0.186	0.406	0.0692	0.102	0.143	0.18	0.152	0.134	0.109	1.02	0.918	1.03	0.837	0.944	0.246	0.202	0.152	0.204	0.114
RERF-LC-KJ	1.08	0.727	0.614	0.208	0.251	1.42	1.26	0.4	0.227	0.303	1.11	1.1	1.15	1.09	1.01	0.686	0.677	0.381	0.528	0.41
SK-LU-1	0.173	0.188	0.154	0.139	0.134	0.178	0.169	0.244	0.149	0.169	–	1.15	1.05	0.518	0.761	0.722	0.597	0.709	0.754	0.455
SW 1573	0.763	0.449	0.242	0.128	0.0881	0.189	0.209	0.218	0.138	0.127	0.952	1.22	1.03	0.924	0.763	0.474	0.41	0.114	0.392	0.214
